Laboratory results reported in patent publication US8754047B2, “Peptide compositions and methods of use” (The Research Foundation for the State University of New York, priority 2008, dated 2014).
Entries after “also recorded” stand apart in the source; their conditions may differ. Positions of bridges follow the written chain, without caps; N, C: chain ends. Residues, ends and D or L forms follow the SMILES beside them. No end group written: not given here.

Legend:
[1] = test system: HT29, SW480, BxPC3, MCF7, and MDA-MB-231 cell lines; assay type: cell-based, human; conditions: 24 h
Description: (FIG. 2A1-8, and FIG. 2B1-6).

[2] = test system: SW480 human colon cancer cells; test: Flow cytometry forward/side scatter, proportion of dead cells, SW480; assay type: cell-based
Experimental: (§1) SW480 human colon cancer cells and MCF7 breast cancer cells were grown following the instructions of American Type Culture Collection (ATCC, Monassas, Va.). The cells were treated with the test peptides (YJB01, YJB05, or YJB06) for 24 hrs at concentrations ranging from 0 μM, to 200 μM and subjected to flow cytometric analysis following standard protocols.
(§2) SW480 human colon cancer cells and MCF7 breast cancer cells were grown following the instructions of American Type Culture Collection (ATCC, Monassas, Va.). The cells were treated with the test peptides for 24 hrs at concentrations ranging from 0 μM, to 200 μM and subjected to flow cytometry analysis following standard protocols. […] The circumscribed (gated, outlined) areas in the figure indicate dead cells; dead cells generally have higher density (side scatter) and smaller size (forward scatter) than living cells.

MCF7 breast cancer cells = conditions: 24 h
Experimental: (§3) 10,000 HT29 or SW480 human colon cancer cells, BxPC-3 human pancreatic cancer cells, and MCF7 and MDA-MB-231 breast cancer cells were obtained from American Type Culture Collection (ATTC), Manassas, Va., and were seeded in separate 96-well plates. After treatment with various concentrations (6.25 μM, 12.5 μM, 25 μM, 50 μM, 100 μM, or 200 μM) of test peptide for 24 h, cells were stained with MTT (3-(4,5-Dimethyl-2-thiazolyl)-2,5-diphenyl-2H-tetrazolium bromide, from Sigma-Aldrich) following the instructions of the manufacturer. Before dissolving MTT in SDS, the HT29 and SW480 cells were photographed using a digital camera connected with a phase-contrast microscope. (FIG. 2A1-8, and FIG. 2B1-6). Cells that are alive convert MTT into formazan in their active mitochondria and appear dark purple; dead cells are not stained by MTT and appear colorless.
(§4) The IC50 is the concentration of the test agent that inhibits cell growth by 50% at 24 hours of exposure. IC50s were determined using the MTT assay or using the cell Titer-Glo method and following the instructions of the manufacturer ([…]). […] (Sun, Y., and Rigas, B., (2008), Cancer Res., 68(20): 8269-8277).

[3] = test system: MDA-MB-231 breast cancer cells; conditions: 24 h
Experimental: as §3, §4

[4] = test system: BxPC-3 human pancreatic cancer cells; conditions: 24 h
Experimental: as §3, §4

[5] = test system: SW480 human colon cancer cells; test: Annexin V-FITC flow cytometry for apoptotic cells, SW480; assay type: cell-based; conditions: 24 hrs, 0 μM to 200 μM
Experimental: (§5) SW480 human colon cancer cells and MCF7 breast cancer cells were grown following the instructions of American Type Culture Collection (ATCC, Monassas, Va.). The cells were treated with the test peptides (YJB01, YJB05, or YJB06) for 24 hrs at concentrations ranging from 0 μM, to 200 μM. After treatment, cells were trypsinized and stained with Annexin V-FITC (100× dilution) for 15 minutes. Annexin V-FITC fluorescence intensities were analyzed by FACSCaliber (BD Bioscience) following standard protocols. Annexin V (+) cells are apoptotic cells.
When cells undergo apoptosis, the inner membrane phospholipid, phosphotidylserine (PS), flips to the outer membrane and can be recognized by the […]. The green FITC fluorescence can be determined by flow cytometry and thus Annexin V (+) cells are apoptotic cells.
as §5, with “In this study, SW480” for “SW480”, “human” for “human colon”, “treatment” for “treatment,”, “protocols.” for “protocols. Annexin V (+) cells are apoptotic cells.”

[6] = test system: MCF-7 human breast cancer cells; test: Flow cytometry forward/side scatter, proportion of dead cells, MCF7; assay type: cell-based; conditions: 200 μM, 24 hr
Experimental: as §1, §2

peroxiredoxin 1 = test: Oxidized peroxiredoxin 1 (Prx-O3) immunoblot in SW480 cells; assay type: cell-based, human; conditions: 1 h, YJB01 20 μM and 100 μM, YJB05 100 μM
Experimental: (§6) The oxidized peroxiredoxin 1 (sulphonic-peroxiredoxin, Prx-O3) was detected by using the specific anti-Prx-O3 antibody. Briefly, after SW480 cells were treated with either no peptide, with YBJ01 (at 20 μM and 100 μM), or with YJB05 (at 100 μM) for 1 h, total cell lysates were collected and separated on the SDS-PAGE gel. The gel was electroblotted onto a nitrocellulose membrane and probed with anti-Prx-O3, followed by HRP-conjugated secondary antibody. Bands corresponding to sulphonic-peroxiredoxin were visualized by ECL
as §6, with “anti-Prx-O3 antibody” for “anti-Prx-O3 antibody.”, “with YBJ05” for “with YJB05”

thioredoxin 1 = biological target: T1, thioredoxin 1 (Homo sapiens, UniProt P10599); test: Thioredoxin 1 redox state, native PAGE immunoblot in SW480 cells; assay type: cell-based; conditions: YJB01 20 μM and 100 μM, YJB05 100 μM
T1 construct: endogenous in cells; host or cells: SW480 human colon cancer cells
T1 sequence (P10599 1-105): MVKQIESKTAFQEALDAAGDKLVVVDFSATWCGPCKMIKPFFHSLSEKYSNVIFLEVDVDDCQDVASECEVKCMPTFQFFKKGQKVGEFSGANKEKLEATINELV
Experimental: (§7) SW480 human colon cancer cells were grown following the instructions of American Type Culture Collection (ATCC, Monassas, Va.). Cells were treated with either no peptide, with YBJ01 (at 20 μM and 100 μM), or with YBJ05 (at 100 μM). 10^6 cells were lysed in 6 mol/L guanidinium chloride, 50 mmol/L Tris/HCL (pH 8.3), 3 mmol/L EDTA, and 0.5% Triton-X-100 containing 50 mmol/L iodoacetic acid. After 30 min at 37° C., the excess idoacetic acid was removed using Microspin G-25 columns (GE Healthcare Life Sciences). Oxidized and reduced thioredxoin was separated by native PAGE. The gel was electroblotted onto a nitrocellulose membrane and probed with thioredoxin antibodies, followed by HRP-conjugated secondary antibody. Bands corresponding to thioredoxin were visualized by ECL.
as §7, with “10^6 cells from each sample were lysed” for “10^6 cells were lysed”, “native PAGE. […]” for “native PAGE. The gel was electroblotted onto a nitrocellulose membrane and probed with thioredoxin antibodies, followed by HRP-conjugated secondary antibody. Bands corresponding to thioredoxin were visualized by ECL.”

| Compound | IC50 [1] | cell killing effect, SW480 ([2]; 24 hrs, 0 μM to 200 μM) | IC50 (MCF7 breast cancer cells) | IC50 [3] | IC50 [4] | apoptosis, Annexin V (+) cells, SW480 [5] | dead cells, MCF7 [6] | induction of the oxidized form of peroxiredoxin 1 (peroxiredoxin 1) | induction of the oxidized form of thioredoxin 1 (thioredoxin 1) | dead cells, SW480 ([2]; 200 μM, 24 hr) |
| --- | --- | --- | --- | --- | --- | --- | --- | --- | --- | --- |
| C[C@H](N)C(=O)N[C@H](C(=O)N[C@@H](Cc1c[nH]c2ccccc12)C(=O)N[C@H]1CSSC[C@@H](C(=O)O)NC(=O)[C@@H]2CCCN2C(=O)CNC1=O)[C@@H](C)O [YJB06] (H-ATWCGPC-OH; disulfide 4-7 (inferred); N-terminus and C-terminus assumed) | > 2000 µM | failed to kill SW480 colon cancer cells | – | – | – | – | – | – | – | – |
| CC[C@H](C)[C@H](NC(=O)[C@H](CCCCN)NC(=O)[C@@H](NC(=O)[C@H](CCC(N)=O)NC(=O)[C@H](CCCNC(=N)N)NC(=O)[C@@H]1CCCN1C(=O)[C@H](C)NC(=O)[C@@H]1CCCN1C(=O)[C@@H]1CSSC[C@H](NC(=O)[C@@H](N)C(C)C)C(=O)N2CCC[C@H]2C(=O)N[C@@H](C(C)C)C(=O)N1)[C@@H](C)CC)C(=O)N[C@@H](Cc1c[nH]c2ccccc12)C(=O)N[C@@H](Cc1ccccc1)C(=O)N[C@@H](CCC(N)=O)C(=O)N[C@@H](CC(N)=O)C(=O)N[C@@H](CCCNC(=N)N)C(=O)N[C@@H](CCCNC(=N)N)C(=O)N[C@@H](CCSC)C(=O)N[C@@H](CCCCN)C(=O)N[C@@H](Cc1c[nH]c2ccccc12)C(=O)N[C@@H](CCCCN)C(=O)N[C@@H](CCCCN)C(=O)O [YJB04] (H-VCPVCPAPRQIKIWFQNRRMKWKK-OH; disulfide 2-5; N-terminus and C-terminus assumed) | – | – | 25 µM | 195 µM | 123 µM | – | – | – | – | – |
| ATWAGPAKPRQIKIWFQNRRMKWKK [YJB05, reference compound] | > 2000 µM | – | – | – | – | ineffective | 12.52% | fails to induce oxidation | failed to induce oxidation of thioredoxin 1; also recorded: fails to induce oxidation | 21.62% |
| CC[C@H](C)[C@H](NC(=O)[C@H](CCCCN)NC(=O)[C@@H](NC(=O)[C@H](CCC(N)=O)NC(=O)[C@H](CCCNC(=N)N)NC(=O)[C@@H]1CCCN1C(=O)[C@H](CCCNC(=N)N)NC(=O)[C@@H]1CSSC[C@H](NC(=O)[C@@H](N)[C@@H](C)O)C(=O)N2CCC[C@H]2C(=O)N[C@@H](Cc2ccc(O)cc2)C(=O)N1)[C@@H](C)CC)C(=O)N[C@@H](Cc1c[nH]c2ccccc12)C(=O)N[C@@H](Cc1ccccc1)C(=O)N[C@@H](CCC(N)=O)C(=O)N[C@@H](CC(N)=O)C(=O)N[C@@H](CCCNC(=N)N)C(=O)N[C@@H](CCCNC(=N)N)C(=O)N[C@@H](CCSC)C(=O)N[C@@H](CCCCN)C(=O)N[C@@H](Cc1c[nH]c2ccccc12)C(=O)N[C@@H](CCCCN)C(=O)N[C@@H](CCCCN)C(=O)O [YJB03] | – | – | 21 µM | 309 µM | 153 µM | – | – | – | – | – |
